Test results published in patent US7351703B2, “Sulfonylamino carboxylic acid N-arylamides as guanylate cyclase activators” (Sanofi-Aventis Deutschland GmbH, priority 1999, dated 2008).

Tests used:
[1] = target: T1, soluble guanylate cyclase (sGC) (Bos taurus, UniProt P16068); test: Activation of soluble guanylate cyclase (cGMP enzyme immunoassay); format: biochemical; details: sGC isolated from bovine lung, stimulation of basal enzyme activity vs solvent control
T1 construct: The sGC employed had been isolated from bovine lung; from tissue; host or cells: bovine lung
T1 sequence (P16068 1-619): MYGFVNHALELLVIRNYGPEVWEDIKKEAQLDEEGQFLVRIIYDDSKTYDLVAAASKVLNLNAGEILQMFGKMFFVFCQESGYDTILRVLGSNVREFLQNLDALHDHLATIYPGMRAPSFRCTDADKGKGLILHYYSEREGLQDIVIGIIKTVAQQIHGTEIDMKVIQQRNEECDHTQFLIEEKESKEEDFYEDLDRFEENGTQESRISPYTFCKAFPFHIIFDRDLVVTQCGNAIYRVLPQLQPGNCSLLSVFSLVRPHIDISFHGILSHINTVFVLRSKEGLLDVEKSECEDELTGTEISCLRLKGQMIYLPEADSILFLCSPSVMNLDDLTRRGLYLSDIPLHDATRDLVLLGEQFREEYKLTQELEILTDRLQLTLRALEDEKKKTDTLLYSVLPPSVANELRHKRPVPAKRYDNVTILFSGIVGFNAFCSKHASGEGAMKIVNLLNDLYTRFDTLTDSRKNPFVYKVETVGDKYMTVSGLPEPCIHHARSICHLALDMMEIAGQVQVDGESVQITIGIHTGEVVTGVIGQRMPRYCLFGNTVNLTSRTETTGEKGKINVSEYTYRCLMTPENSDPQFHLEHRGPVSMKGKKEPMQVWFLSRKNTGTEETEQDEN
T1 sequence (P19687 1-691 partner): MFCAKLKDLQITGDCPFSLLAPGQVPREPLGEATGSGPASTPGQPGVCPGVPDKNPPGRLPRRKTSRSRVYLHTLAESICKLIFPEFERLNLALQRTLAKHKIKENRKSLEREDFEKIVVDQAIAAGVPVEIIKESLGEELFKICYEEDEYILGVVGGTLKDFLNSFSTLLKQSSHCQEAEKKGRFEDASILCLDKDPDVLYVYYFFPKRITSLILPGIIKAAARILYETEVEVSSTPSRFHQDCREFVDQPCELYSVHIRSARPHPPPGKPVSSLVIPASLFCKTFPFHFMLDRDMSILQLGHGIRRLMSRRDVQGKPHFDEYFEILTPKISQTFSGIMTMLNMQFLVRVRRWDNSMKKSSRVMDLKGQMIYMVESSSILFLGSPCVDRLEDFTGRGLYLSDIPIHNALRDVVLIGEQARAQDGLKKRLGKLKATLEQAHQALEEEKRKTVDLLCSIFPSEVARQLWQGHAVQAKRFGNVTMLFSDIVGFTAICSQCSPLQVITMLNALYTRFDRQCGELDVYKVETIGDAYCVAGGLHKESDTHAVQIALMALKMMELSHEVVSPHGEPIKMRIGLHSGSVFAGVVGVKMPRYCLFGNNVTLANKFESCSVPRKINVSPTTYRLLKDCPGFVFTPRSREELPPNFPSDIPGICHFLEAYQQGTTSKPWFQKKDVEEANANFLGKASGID
Protocol: The activation of soluble guanylate cyclase (sGC), which catalyzes the conversion of guanosine triphosphate (GTP) to cyclic guanosine monophosphate (cGMP) and pyrophosphate, by the compounds according to the invention was quantified with the aid of an enzyme immunoassay (EIA) from Amersham. For this, the test substances were first incubated with sGC in microtiter plates and then the quantity of the resulting cGMP was determined.
The sGC employed had been isolated from bovine lung (see Methods in Enzymology, Volume 195, p. 377). The test solutions (100 μl per well) contained 50 mM triethanolamine (TEA) buffer (pH 7.5), 3 mM MgCl2, 3 mM reduced glutathione (GSH), 0.1 mM GTP, 1 mM 3-isobutyl-1-methylxanthine (IBMX), suitably diluted enzyme solution and the test substance or, in the control experiments, solvent. The test substances were dissolved in dimethyl sulfoxide (DMSO) and the solution was diluted with DMSO/water such that the final concentration c of test substance in the test batch had the value indicated below. The DMSO concentration in the test batch was 5% (v/v). The reaction was started by addition of the sGC. The reaction mix was incubated at 37° C. for 15 to 20 minutes and then stopped by ice-cooling and addition of the stop reagent (50 mM EDTA, pH 8.0). An aliquot of 50 μl was taken and employed for the determination of the cGMP content using the acetylation protocol of the Amersham cGMP EIA kit. The absorption of the samples was measured at 450 nm (reference wavelength 620 nm) in a microtiter plate reading apparatus. The cGMP concentration was determined by means of a calibration curve, which was obtained under the same experimental conditions. The activation of the sGC by a test substance is indicated as n-fold stimulation of the basal enzyme activity which was found in the control experiments (with solvent instead of test substance) (calculated according to the formula n-fold stimulation=[cGMP]test substance/[cGMP]control).

For `COc1cc(NC(=O)c2cc(Cl)ccc2NS(=O)(=O)c2ccc(Cl)cc2)cc(OC)c1` [Example 32, 5-Chloro-2-(4-chlorophenylsulfonylamino)-N-(3,5-dimethoxyphenyl)benzamide], the melting point was 74.5 °C.
For `O=C(Nc1ccc(Br)cc1)c1cc(Cl)ccc1NS(=O)(=O)c1ccc(Cl)cc1` [Example 9, 5-Chloro-2-(4-chlorophenylsulfonylamino)-N-(4-bromophenyl)benzamide], the n-fold stimulation ([1]; concentration c 100 μM) was 1.6 n-fold and the melting point was 210 °C.
For `O=C(Nc1ccc2ccccc2c1)c1cc(Cl)ccc1NS(=O)(=O)c1ccc(Cl)cc1` [Example 12, 5-Chloro-2-(4-chlorophenylsulfonylamino)-N-(2-naphthyl)benzamide], the n-fold stimulation ([1]; concentration c 25 μM) was 2.8 n-fold and the melting point was 211 °C.
For `COc1ccc(NC(=O)c2cc(Cl)ccc2NS(=O)(=O)c2ccc(Cl)cc2)cc1` [Example 11, 5-Chloro-2-(4-chlorophenylsulfonylamino)-N-(4-methoxyphenyl)benzamide], the n-fold stimulation ([1]; concentration c 100 μM) was 1.8 n-fold and the melting point was 190 °C.
`O=C(Nc1ccc(Nc2ccccc2)cc1)c1cc(Cl)ccc1NS(=O)(=O)c1ccc(Cl)cc1` [Example 22, 5-Chloro-2-(4-chlorophenylsulfonylamino)-N-(4-(phenylamino)phenyl)benzamide] showed a melting point of 192.5 °C.
`O=C(Nc1ccc(OCc2ccccc2)cc1)c1cc(Cl)ccc1NS(=O)(=O)c1ccc(Cl)cc1` [Example 23, 5-Chloro-2-(4-chlorophenylsulfonylamino)-N-(4-(benzyloxy)phenyl)benzamide] gave a n-fold stimulation ([1]; concentration c 25 μM) of 2.2 n-fold and a melting point of 191 °C.
Molecule `O=C(Nc1ccc(Cl)c(Cl)c1)c1cc(Cl)ccc1NS(=O)(=O)c1ccc(Cl)cc1` [Example 8, 5-Chloro-2-(4-chlorophenylsulfonylamino)-N-(3,4-dichlorophenyl)benzamide] has a n-fold stimulation ([1]; concentration c 10 μM) of 5.3 n-fold.
For `O=C(Nc1ccc(N2CCCC2=O)cc1)c1cc(Cl)ccc1NS(=O)(=O)c1ccccc1` [Example 25], the n-fold stimulation ([1]; concentration c 50 μM) was 2.4 n-fold.
With `CCN(CC)Cc1cc(NC(=O)c2cc(Cl)ccc2NS(=O)(=O)c2ccc(Cl)cc2)ccc1O` [Example 93, 5-Chloro-2-(4-chlorophenylsulfonylamino)-N-(3-diethylaminomethyl-4-hydroxyphenyl)benzamide] the n-fold stimulation ([1]; concentration c 50 μM) was 1.5 n-fold.
With `O=C(Nc1cccc(C(F)(F)F)c1)c1ccccc1NS(=O)(=O)c1ccc(Cl)cc1` [Example 1, 2-(4-Chlorophenylsulfonylamino)-N-(3-trifluoromethylphenyl)benzamide] the n-fold stimulation ([1]; concentration c 100 μM) was 3.6 n-fold and the melting point was 169 °C.
`O=C(Nc1cccc(Cl)c1)c1cc(Cl)ccc1NS(=O)(=O)c1ccc(Cl)cc1` [Example 10, 5-Chloro-2-(4-chlorophenylsulfonylamino)-N-(3-chlorophenyl)benzamide] showed a n-fold stimulation ([1]; concentration c 100 μM) of 1.7 n-fold and a melting point of 228 °C.
Work on `O=C(Nc1cccc(C(F)(F)F)c1)c1cc(Br)ccc1NS(=O)(=O)c1ccc(Cl)cc1` [Example 2, 5-Bromo-2-(4-chlorophenylsulfonylamino)-N-(3-trifluoromethylphenyl)benzamide] yielded a n-fold stimulation ([1]; concentration c 100 μM) of 9.2 n-fold and a melting point of 220 °C.
Molecule `O=C(Nc1ccc(C(=O)N2CCOCC2)cc1)c1cc(Cl)ccc1NS(=O)(=O)c1ccc(Cl)cc1` [Example 33, 5-Chloro-2-(4-chlorophenylsulfonylamino)-N-(4-(morpholine-4-carbonyl)phenyl)benzamide] has a n-fold stimulation ([1]; concentration c 50 μM) of 3.8 n-fold.
For `O=C(Nc1cc(C(F)(F)F)cc(C(F)(F)F)c1)c1cc(Cl)ccc1NS(=O)(=O)c1ccc(Cl)cc1` [Example 28, 5-Chloro-2-(4-chlorophenylsulfonylamino)-N-(3,5-bis-trifluoromethylphenyl)benzamide], the melting point was 182.5 °C.
For `COc1ccc(S(=O)(=O)Nc2ccc(Cl)cc2C(=O)Nc2ccc(F)cc2)cc1Cl` [Example 17], the n-fold stimulation ([1]; concentration c 100 μM) was 2 n-fold.
`Cc1cncc(NC(=O)c2cc(Cl)ccc2NS(=O)(=O)c2ccc(Cl)cc2)n1` [Example 26, 5-Chloro-2-(4-chlorophenylsulfonylamino)-N-(5-methylpyrazin-3-yl)benzamide] gave a melting point of 248 °C.
`O=C(Nc1ccccc1C(F)(F)F)c1cc(Cl)ccc1NS(=O)(=O)c1ccc(Cl)cc1` [Example 30, 5-Chloro-2-(4-chlorophenylsulfonylamino)-N-(2-trifluoromethylphenyl)benzamide] gave a melting point of 182 °C.
For “5-Chloro-2-(4-chlorophenylsulfonylamino)-N-(quinolinsyl)benzamide [Example 111]”, the n-fold stimulation ([1]; concentration c 50 μM) was 6.1 n-fold.
With `N#CC(c1ccccc1)c1ccc(NC(=O)c2cc(Cl)ccc2NS(=O)(=O)c2ccc(Cl)cc2)cc1` (centres unmarked) [Example 97, 5-Chloro-2-(4-chlorophenylsulfonylamino)-N-(4-(cyanophenylmethyl)phenyl)benzamide] the n-fold stimulation ([1]; concentration c 12.5 μM) was 4.9 n-fold.
Molecule `O=C(O)CNC(=O)c1ccc(NC(=O)c2cc(Cl)ccc2NS(=O)(=O)c2ccc(Cl)cc2)cc1` [Example 102, (4-(5-Chloro-2-(4-chlorophenylsulfonylamino)benzoylamino)benzoylamino)acetic acid] has a n-fold stimulation ([1]; concentration c 50 μM) of 1.7 n-fold.
With `O=C(O)Cc1cccc(NC(=O)c2cc(Cl)ccc2NS(=O)(=O)c2ccc(Cl)cc2)c1` [Example 108, (3-(5-Chloro-2-(4-chlorophenylsulfonylamino)benzoylamino)phenyl)acetic acid] the n-fold stimulation ([1]; concentration c 50 μM) was 2.5 n-fold.
Molecule `O=C(Nc1ccc(Oc2ccc(Cl)c3ccccc23)c(Cl)c1)c1cc(Cl)ccc1NS(=O)(=O)c1ccc(Cl)cc1` [Example 19, 5-Chloro-2-(4-chlorophenylsulfonylamino)-N-(3-chloro-4-(4-chloronaphthalene-1-yloxy)phenyl)benzamide] has a n-fold stimulation ([1]; concentration c 100 μM) of 26.3 n-fold.
`COc1cccc(NC(=O)c2cc(Cl)ccc2NS(=O)(=O)c2ccc(Cl)cc2)c1` [Example 31, 5-Chloro-2-(4-chlorophenylsulfonylamino)-N-(3-methoxyphenyl)benzamide] showed a melting point of 163.5 °C.
With `COc1ccc(C(F)(F)F)cc1NC(=O)c1cc(Cl)ccc1NS(=O)(=O)c1ccc(Cl)cc1` [Example 29, 5-Chloro-2-(4-chlorophenylsulfonylamino)-N-(2-methoxy-5-trifluoromethylphenyl)benzamide] the melting point was 164.5 °C.
Work on `O=C(Nc1cc(-c2cccs2)n[nH]1)c1cc(Cl)ccc1NS(=O)(=O)c1ccc(Cl)cc1` [Example 27, 5-Chloro-2-(4-chlorophenylsulfonylamino)-N-(3-(2-thienyl)pyrazol-5-yl)benzamide] yielded a melting point of 117 °C.
